Measured values from US20240294881A1, “CELL CULTURE SUPPLEMENT FOR PRODUCING STEM CELLS, AND METHOD FOR PRODUCING STEM CELLS” (OPTICELL, INC, priority 2021, published 2024).

Columns and labels:
[1] = test system: healthy human neonatal fibroblasts; experiment: Real-time PCR of undifferentiated stem cell marker genes in neonatal fibroblast spheroids (6-well flat-bottom); assay type: cell-based; conditions: day 20 of 3D spheroid culture, coated 6-well flat-bottom; control without supplement = 1.0; ΔΔCt, β-actin
Protocol: 2 mL of an aqueous solution of the polypeptide represented by formula (1) (0.125%) (cell culture supplement) was added to a commercial polystyrene-made 6-well flat-bottom culture vessel (CellBIND, Corning) and allowed to stand at 4° C. for 24 hours.
Thereafter, the excess cell culture supplement was removed, and the remaining solution was dried in a dryer at 37° C. for 96 hours to complete coating treatment with the cell culture supplement. Healthy human neonatal fibroblasts (ATCC PCS-201-010, primary dermal fibroblasts, neonatal, referred to as “fibroblasts” below) were maintained and cultured in a serum-free medium (Promo Cell; fibroblast basal medium, basic-FGF 5 ng/mb and insulin 2.5 μg/mL). The fibroblasts floating in 2 mL of the medium were seeded in the culture vessel coated with the cell culture supplement at 2×10^6 cells/well and cultured at 37° C. under 5% CO2 conditions. For a control, fibroblasts were seeded in a culture vessel of the same type with no coating applied with the cell culture supplement (2×10^6 cells/well). Observation was performed with a microscope on day 2 and day 20 after the start of culture to capture images of spheroid formation (FIG. 5). […]
Specifically, a NucleoZOL reagent (Macherey-Nagel) was added to each type of cells, and total-RNA was extracted according to the protocol recommended by the reagent manufacturer and used as template RNA for detecting undifferentiated stem cell markers. For real-time PCR analysis, PCR probes from QuantiFast Probe RT-PCR Kits (QTAGEN; No. 204454) and TagMan Gene Expression Assay Probe (Thermo Fisher Scientific) were used. […] In the gene expression analysis, relative quantification was performed according to the ΔΔCt method (Delta Delta Ct method). The results of analysis according to the ΔΔCt method show the amount of a gene expressed by control cells under the conditions of “no cell culture supplement, flat-bottom 2D growth, day 0” as “1.0” in relative terms, and the increase rate of the expression level on day 20 of spheroid proliferation was determined by comparison (FIG. 6).

HOS-143B cells = experiment: Inhibition of induction of apoptosis, Caspase-3/7 activity assay in spheroids; assay type: cell-based, human; conditions: U- and V-bottom 96-well plates coated with 0.5% solution diluted 4-fold and 8-fold; day 3 and day 6; concentration-dependent, more pronounced on day 6
Protocol: (§1) An aqueous solution of the polypeptide represented by formula (1) was added in two different concentrations (prepared by diluting a 0.5% solution 4-fold and 8-fold) at 100 μL/well and 200 μL/well respectively to two 96-well cell culture plates with different bottom shapes (plate #163320 with a U-shaped bottom; Corning, NY, USA, and plate #277143 with a V-shaped bottom; Thermo Fisher Scientific, MA, USA) and allowed to stand overnight at 4° C. Thereafter, the excess cell culture supplement was removed, and the remaining solution was dried in a clean bench for about 6 hours to complete the treatment with the cell culture supplement. […] After three days and six days, the apoptosis activity per well was measured by using a Caspase activity assay kit (Apo-ONE Homogeneous Caspase-3/7 Assay kit; Promega, WI, USA). […] Thereafter, 100 μL of the culture fluid was transferred to a black 96-well cell culture plate (#237105; Thermo Fisher Scientific, MA, USA), and the value of fluorescence at 590 nm (excitation light at 560 nm) was measured with a plate reader. The value determined by subtracting the value for reagent-only with no cells (blank value) from a measured value was considered to be the measured value for each day of culture, and the values compared to those of the plate not coated with the aqueous solution of the polypeptide represented by formula (1) (control) were plotted.

[2] = test system: canine tubule-derived MDCK II cells; experiment: as above; assay type: cell-based; conditions: U- and V-bottom 96-well plates coated with 0.5% solution diluted 4-fold and 8-fold; day 3 and day 6; concentration-dependent, more pronounced on day 6
Protocol: as §1

(Pro-Hyp-Gly)n [cell culture supplement]
NANOG gene expression level (increase vs control) [1]: 9.1 fold
OCT4 gene expression level (increase vs control) [1]: 5.1 fold
SOX2 gene expression level (increase vs control) [1]: 34.4 fold
apoptosis (Caspase-3/7 activity) compared with uncoated plate (HOS-143B cells): inhibited
apoptosis (Caspase-3/7 activity) compared with uncoated plate [2]: inhibited
